In ChEMBL document CHEMBL5723585, “Data for DCP probe JNJ-54082730” (2024) one finds IC50 and ED50 data, which are given here for 1 compound.

Assay [1] concerns the target cGMP-dependent 3',5'-cyclic phosphodiesterase (Homo sapiens, UniProt O00408). Briefly: Scintillation proximity assay (PDE2A) ( Mean (95% Confidence Interval) = 0.8 -1 nM; Ki = 0.7 nM). A general note: Scintillation proximity formats need no separation of bound from free tracer.
In assay [2] the target is cGMP-dependent 3',5'-cyclic phosphodiesterase (Rattus norvegicus) (UniProt Q01062). The assay is described as follows: Target occupancy in striatum ( p.o.dose, 1 h). Format: organism-based.
Assay [3] addresses cAMP and cAMP-inhibited cGMP 3',5'-cyclic phosphodiesterase 10A (Homo sapiens, UniProt Q9Y233). The assay is described as follows: Scintillation proximity assay (PDE10A).
Assay [4] deals with Phosphodiesterase 3 (Homo sapiens, UniProt Q14432+Q13370). The assay is described as follows: Scintillation proximity assay (PDE3). Format: protein assay.

cGMP-dependent 3',5'-cyclic phosphodiesterase (Rattus norvegicus), sequence (Q01062 whole entry): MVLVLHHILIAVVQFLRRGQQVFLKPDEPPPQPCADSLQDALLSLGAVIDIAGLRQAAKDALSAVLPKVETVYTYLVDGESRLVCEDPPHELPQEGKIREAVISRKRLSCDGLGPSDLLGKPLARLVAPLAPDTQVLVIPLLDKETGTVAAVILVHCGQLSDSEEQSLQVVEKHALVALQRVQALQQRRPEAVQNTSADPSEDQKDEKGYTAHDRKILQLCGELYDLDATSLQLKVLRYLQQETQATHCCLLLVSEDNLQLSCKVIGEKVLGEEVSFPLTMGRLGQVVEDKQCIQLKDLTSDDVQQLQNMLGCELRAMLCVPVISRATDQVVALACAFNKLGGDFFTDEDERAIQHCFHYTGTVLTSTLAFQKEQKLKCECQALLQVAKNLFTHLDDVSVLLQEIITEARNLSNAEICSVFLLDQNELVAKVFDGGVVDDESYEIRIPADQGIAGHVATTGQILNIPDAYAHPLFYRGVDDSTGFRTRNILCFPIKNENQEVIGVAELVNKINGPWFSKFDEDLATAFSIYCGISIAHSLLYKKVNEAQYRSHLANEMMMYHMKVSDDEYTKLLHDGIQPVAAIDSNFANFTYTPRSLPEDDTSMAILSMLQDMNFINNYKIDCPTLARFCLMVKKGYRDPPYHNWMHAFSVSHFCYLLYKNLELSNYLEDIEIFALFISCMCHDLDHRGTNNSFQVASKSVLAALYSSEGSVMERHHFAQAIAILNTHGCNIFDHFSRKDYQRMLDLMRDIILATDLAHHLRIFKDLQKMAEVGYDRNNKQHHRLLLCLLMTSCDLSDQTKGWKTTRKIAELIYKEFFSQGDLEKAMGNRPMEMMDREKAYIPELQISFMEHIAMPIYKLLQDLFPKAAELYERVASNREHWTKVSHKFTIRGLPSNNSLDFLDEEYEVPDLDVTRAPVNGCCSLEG
cGMP-dependent 3',5'-cyclic phosphodiesterase, sequence (O00408 whole entry): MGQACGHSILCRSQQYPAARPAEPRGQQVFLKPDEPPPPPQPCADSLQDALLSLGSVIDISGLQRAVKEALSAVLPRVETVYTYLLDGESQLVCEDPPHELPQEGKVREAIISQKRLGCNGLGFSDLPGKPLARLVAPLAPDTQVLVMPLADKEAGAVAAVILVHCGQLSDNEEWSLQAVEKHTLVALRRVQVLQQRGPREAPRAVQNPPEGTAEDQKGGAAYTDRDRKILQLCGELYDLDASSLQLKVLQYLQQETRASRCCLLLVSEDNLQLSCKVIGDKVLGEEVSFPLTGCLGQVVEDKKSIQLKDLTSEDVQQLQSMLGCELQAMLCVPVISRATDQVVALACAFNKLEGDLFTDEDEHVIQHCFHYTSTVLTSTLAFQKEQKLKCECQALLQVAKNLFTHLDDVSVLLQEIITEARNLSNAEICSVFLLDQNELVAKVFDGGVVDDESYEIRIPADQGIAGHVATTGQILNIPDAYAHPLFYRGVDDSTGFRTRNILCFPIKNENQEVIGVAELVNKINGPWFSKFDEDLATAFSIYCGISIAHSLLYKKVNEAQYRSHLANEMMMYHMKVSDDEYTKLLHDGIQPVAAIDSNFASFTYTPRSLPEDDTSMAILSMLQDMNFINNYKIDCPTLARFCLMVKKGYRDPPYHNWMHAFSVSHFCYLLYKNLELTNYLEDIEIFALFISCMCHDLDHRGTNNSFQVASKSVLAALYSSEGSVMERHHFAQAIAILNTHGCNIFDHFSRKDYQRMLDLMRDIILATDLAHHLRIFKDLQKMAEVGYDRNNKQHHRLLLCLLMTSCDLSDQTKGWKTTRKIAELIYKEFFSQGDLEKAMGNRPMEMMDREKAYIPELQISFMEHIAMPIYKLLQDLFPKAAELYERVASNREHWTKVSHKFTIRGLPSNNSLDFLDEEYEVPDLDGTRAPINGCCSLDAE
cAMP and cAMP-inhibited cGMP 3',5'-cyclic phosphodiesterase 10A, sequence (Q9Y233 whole entry): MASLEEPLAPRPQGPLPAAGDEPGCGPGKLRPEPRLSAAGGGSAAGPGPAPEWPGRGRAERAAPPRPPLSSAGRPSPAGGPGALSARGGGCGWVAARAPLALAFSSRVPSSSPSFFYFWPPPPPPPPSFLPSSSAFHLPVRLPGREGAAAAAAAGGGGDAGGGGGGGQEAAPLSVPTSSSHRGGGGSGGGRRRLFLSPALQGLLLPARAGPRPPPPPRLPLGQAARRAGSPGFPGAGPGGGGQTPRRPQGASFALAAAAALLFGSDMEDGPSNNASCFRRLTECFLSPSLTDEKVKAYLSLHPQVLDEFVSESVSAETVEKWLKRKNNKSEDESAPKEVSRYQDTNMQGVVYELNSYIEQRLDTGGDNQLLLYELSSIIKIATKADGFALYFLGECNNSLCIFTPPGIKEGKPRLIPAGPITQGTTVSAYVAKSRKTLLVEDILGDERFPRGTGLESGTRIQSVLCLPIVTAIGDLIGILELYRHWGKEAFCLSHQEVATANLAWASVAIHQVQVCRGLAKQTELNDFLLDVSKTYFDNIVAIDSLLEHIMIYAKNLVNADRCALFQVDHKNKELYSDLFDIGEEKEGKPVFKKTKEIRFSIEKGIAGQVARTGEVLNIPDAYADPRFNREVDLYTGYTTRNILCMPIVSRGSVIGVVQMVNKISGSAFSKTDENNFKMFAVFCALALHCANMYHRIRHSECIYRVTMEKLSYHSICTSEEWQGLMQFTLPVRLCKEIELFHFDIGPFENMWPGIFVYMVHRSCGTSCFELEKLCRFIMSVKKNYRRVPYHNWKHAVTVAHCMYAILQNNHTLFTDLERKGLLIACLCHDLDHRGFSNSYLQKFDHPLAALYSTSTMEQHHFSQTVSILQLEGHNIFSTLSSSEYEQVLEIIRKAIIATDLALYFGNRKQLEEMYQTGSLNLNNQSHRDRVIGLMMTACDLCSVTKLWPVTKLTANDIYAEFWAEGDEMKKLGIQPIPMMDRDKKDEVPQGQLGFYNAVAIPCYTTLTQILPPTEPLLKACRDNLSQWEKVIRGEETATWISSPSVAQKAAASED

One may read the IC50 as the concentration that inhibits the measured activity by half. A higher IC50 goes with a need for much substance. For orientation: ED50 means the dose that gives a 50% effect, or the effect in half of the subjects. As for `Cc1cc(C(=O)N2CC[C@H](C)[C@@H](c3cc(C(F)F)nc4ncnn34)C2)cc(C)n1`, the IC50 in assay [1] is 0.097 µM (not active); in assay [3], > 10 µM (not active); in assay [4], above 10 µM. Further, the ED50 in assay [2] was above 80 mg/kg.
